As usually defined, the IC50 is the midpoint of a concentration-inhibition curve.

T1 sequence (P04629 441-796): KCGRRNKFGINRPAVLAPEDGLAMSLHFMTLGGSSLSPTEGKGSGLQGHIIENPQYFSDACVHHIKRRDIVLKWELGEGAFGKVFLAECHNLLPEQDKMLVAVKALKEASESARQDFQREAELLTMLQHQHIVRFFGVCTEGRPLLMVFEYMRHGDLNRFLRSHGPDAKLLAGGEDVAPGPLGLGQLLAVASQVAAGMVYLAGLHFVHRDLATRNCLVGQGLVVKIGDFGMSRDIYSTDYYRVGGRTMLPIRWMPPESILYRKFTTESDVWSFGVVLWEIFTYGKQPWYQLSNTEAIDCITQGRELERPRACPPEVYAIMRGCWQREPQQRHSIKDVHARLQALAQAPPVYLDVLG

The experiment addresses T1, TrkA (Homo sapiens, UniProt P04629).
T1 construct: aa 441-796; His; purchased Invitrogen PV3144
Put plainly: Isolated TRK enzyme assay (HTRF KinEASE-TK kit), PV3144 TrkA enzyme assay. The following applies: PV3144 TrkA enzyme assay, recombinant His-tagged cytoplasmic domain aa 441-796, 4 nM enzyme, 40 uM ATP; arithmetic mean where more than one reading; read-out: Trka enzyme (IC50). The class given is biochemical. How it is done:
Isolated TRK Enzyme assays use the HTRF KinEASE-TK kit (Cisbio Cat#62TK0PEJ) with recombinant His-tagged cytoplasmic domains of each TRK receptor sourced from Invitrogen (see table below). This activity-assay measures the phosphorylation of tyrosine residues within a substrate from the HTRF kit which has been validated by Cisbio for a variety of tyrosine kinases including the TRK receptors.
0.5 mM stock solutions of test compounds are prepared and serially diluted in 100% DMSO. A standard curve using the compound of Example 135 disclosed in WO2005/116035 of 150 uM is also prepared on each test plate. High percentage effect (HPE) is defined by 150 uM (using the compound of Example 135 as disclosed in WO2005/116035) and 0% effect (ZPE) is defined by 100% DMSO. Greiner low volume black plates containing 0.2 ul of serially diluted compound, standard and HPE/ZPE are created using the Bravo nanolitre dispenser.
1X enzyme buffer is prepared from 5X Enzymatic Buffer from the Cisbio KinEASE TK kit using MilliQ water. The buffer is then supplemented with 10 mM MgCl and 2 mM DTT (both from Sigma). In the case of TRKB, the buffer is also supplemented with 125 nM Supplement Enzymatic Buffer (SEB) from the Cisbio kit.
2X FAC of enzyme and 2X FAC ATP diluted in 1X complete enzyme buffer is incubated at room temperature for 20 minutes to preactivate the enzyme. Following this preactivation step, 5 ul/well of enzyme+ATP mix is added using a Multidrop Micro to the assay plate, spotted with 0.2 ul 100% DMSO compound. This is left for 20 mins at room temperature before adding 5 ul of 2 uM TK-substrate-Biotin (from the Cisbio kit) diluted in 1X enzyme buffer (1 uM FAC) using the Multidrop Micro. The reaction is incubated at room temperature for the optimized assay reaction time (see table). The reaction is stopped by adding 10 ul/well HTRF Detection Buffer containing 0.25 uM Streptavidin-XL665 (0.125 uM FAC) and 1:200 TK Antibody-Cryptate using a Multidrop.
After the Detection Reagent addition, plates are covered and incubated at room temperature for 60 minutes. HTRF signal is read using an Envision reader, measured as a ratio of emissions at two different wavelengths, 620 nm and 665 nm. […] Test compound data are expressed as percentage inhibition defined by HPE and ZPE values for each plate. Percentage inhibition in the presence of test compound is plotted against compound concentration on a log scale to determine an IC50 from the resultant sigmoid curve.
Below are TrkA IC50 data generated using the PV3144 TrkA enzyme assay. Where more than one reading was taken, the arithmetic mean is presented.
For orientation: In TR-FRET formats the signal depends on donor and acceptor labels being close together.
As for `Cc1cc(C(F)(F)F)nn1CC(=O)Nc1cc(C(=O)c2cn(C(C)C)c3nc(N)ncc23)ccn1` [Example 46, N-(4-{[2-amino-7-(propan-2-yl)-7H-pyrrolo[2,3-d]pyrimidin-5-yl]carbonyl}pyridin-2-yl)-2-[5-methyl-3-(trifluoromethyl)-1H-pyrazol-1-yl]acetamide], the IC50 amounted to 4.69 nM.

`CC(C)n1cc(C(=O)c2cc(NC(=O)Cc3ccc(Cl)cc3)ccn2)c2cncnc21` [Example 47, 2-(4-Chloro-phenyl)-N-[2-(7-isopropyl-7H-pyrrolo[2,3-d]pyrimidine-5-carbonyl)-pyridin-4-yl]-acetamide]: the IC50 turned out to be 5.71 nM.

Take `CC(C)(CO)n1cc(C(=O)c2cc(NC(=O)Cc3ccc(Cl)cc3)ccn2)c2cnc(N)nc21` [Example 48, N-{2-[2-Amino-7-(2-hydroxy-1,1-dimethyl-ethyl)-7H-pyrrolo[2,3-d]pyrimidine-5-carbonyl}-pyridin-4-yl]-2-(4-chloro-phenyl)-acetamide]: the half-maximal inhibitory concentration (IC50) came to 7.29 nM.

As to `CC(C)(CO)n1cc(C(=O)c2cc(NC(=O)Cc3cccc(C(F)(F)F)c3)ccn2)c2cnc(N)nc21` [Example 49, N-(2-{[2-amino-7-(1-hydroxy-2-methylpropan-2-yl)-7H-pyrrolo[2,3-d]pyrimidin-5-yl]carbonyl}pyridin-4-yl)-2-[3-(trifluoromethyl)phenyl]acetamide], the IC50 is 9.7 nM.

On to `CC(C)(CO)n1cc(C(=O)c2cc(NC(=O)Cc3ccc(C(F)(F)F)cc3)ccn2)c2cnc(N)nc21` [Example 50, N-(2-{[2-amino-7-(1-hydroxy-2-methylpropan-2-yl)-7H-pyrrolo[2,3-d]pyrimidin-5-yl]carbonyl}pyridin-4-yl)-2-[4-(trifluoromethyl)phenyl]acetamide], for which the IC50 is 9.29 nM.

Regarding `CC(C)(CO)n1cc(C(=O)c2cc(NC(=O)Cc3ccc(C#N)cc3)ccn2)c2cnc(N)nc21` [Example 51, N-(2-{[2-amino-7-(1-hydroxy-2-methylpropan-2-yl)-7H-pyrrolo[2,3-d]pyrimidin-5-yl]carbonyl}pyridin-4-yl)-2-(4-cyanophenyl)acetamide], the IC50 amounted to 78.7 nM.

Regarding `CC(C)(CO)n1cc(C(=O)c2cc(NC(=O)Cc3ccc(Cl)cn3)ccn2)c2cnc(N)nc21` [Example 52, N-(2-{[2-amino-7-(1-hydroxy-2-methylpropan-2-yl)-7H-pyrrolo[2,3-d]pyrimidin-5-yl]carbonyl}pyridin-4-yl)-2-(5-chloropyridin-2-yl)acetamide], the IC50 came out at 73.1 nM.

With `CC(C)(CO)n1cc(C(=O)c2cc(NC(=O)Cn3cc(C(F)(F)F)nn3)ccn2)c2cnc(N)nc21` [Example 53, N-(2-{[2-amino-7-(1-hydroxy-2-methylpropan-2-yl)-7H-pyrrolo[2,3-d]pyrimidin-5-yl]carbonyl}pyridin-4-yl)-2-[4-(trifluoromethyl)-1H-1,2,3-triazol-1-yl]acetamide], the concentration for half-maximal inhibition (IC50) was determined as 216 nM.

With `CC(C)(CO)n1cc(C(=O)c2cc(NC(=O)Cn3cc(C(F)(F)F)nn3)ccn2)c2cncnc21` [Example 54, N-(2-{[7-(1-hydroxy-2-methylpropan-2-yl)-7H-pyrrolo[2,3-d]pyrimidin-5-yl]carbonyl}pyridin-4-yl)-2-[4-(trifluoromethyl)-1H-1,2,3-triazol-1-yl]acetamide], the IC50 turned out to be 46.2 nM.

With `CC(C)(CO)n1cc(C(=O)c2cc(NC(=O)Cc3ccc(C(F)(F)F)cc3)ccn2)c2cncnc21` [Example 55, N-(2-{[7-(1-hydroxy-2-methylpropan-2-yl)-7H-pyrrolo[2,3-d]pyrimidin-5-yl]carbonyl}pyridin-4-yl)-2-[4-(trifluoromethyl)phenyl]acetamide], the IC50 is 12.9 nM.

As to `CC(C)(CO)n1cc(C(=O)c2cc(NC(=O)Cc3cccc(C(F)(F)F)c3)ccn2)c2cncnc21` [Example 56, N-(2-{[7-(1-hydroxy-2-methylpropan-2-yl)-7H-pyrrolo[2,3-d]pyrimidin-5-yl]carbonyl}pyridin-4-yl)-2-[3-(trifluoromethyl)phenyl]acetamide], the IC50 amounted to 6.56 nM.

Take `CC(C)(CO)n1cc(C(=O)c2cc(NC(=O)Cc3ccc(C#N)cc3)ccn2)c2cncnc21` [Example 57, 2-(4-cyanophenyl)-N-(2-{[7-(1-hydroxy-2-methylpropan-2-yl)-7H-pyrrolo[2,3-d]pyrimidin-5-yl]carbonyl}pyridin-4-yl)acetamide]: the IC50 was determined as 66.1 nM.

For `CC(C)(CO)n1cc(C(=O)c2cc(NC(=O)Cc3ccc(Cl)cn3)ccn2)c2cncnc21` [Example 58, 2-(5-chloropyridin-2-yl)-N-(2-{[7-(1-hydroxy-2-methylpropan-2-yl)-7H-pyrrolo[2,3-d]pyrimidin-5-yl]carbonyl}pyridin-4-yl)acetamide], the IC50 came to 11.6 nM.

Take `CC(C)(CO)n1cc(C(=O)c2cc(NC(=O)Cn3ccc(C(F)(F)F)n3)ccn2)c2cncnc21` [Example 59, N-(2-{[7-(1-hydroxy-2-methylpropan-2-yl)-7H-pyrrolo[2,3-d]pyrimidin-5-yl]carbonyl}pyridin-4-yl)-2-[3-(trifluoromethyl)-1H-pyrazol-1-yl]acetamide]: the IC50 is 12.3 nM.

On to `Cc1cc(C(F)(F)F)nn1CC(=O)Nc1ccnc(C(=O)c2cn(C(C)(C)CO)c3ncncc23)c1` [Example 60, N-(2-{[7-(1-hydroxy-2-methylpropan-2-yl)-7H-pyrrolo[2,3-d]pyrimidin-5-yl]carbonyl}pyridin-4-yl)-2-[5-methyl-3-(trifluoromethyl)-1H-pyrazol-1-yl]acetamide], for which the concentration for half-maximal inhibition (IC50) was determined as 8.3 nM.

Consider `CC(C)(CO)n1cc(C(=O)c2cc(NC(=O)Cn3ccc(C4CC4)n3)ccn2)c2cncnc21` [Example 61, 2-(3-cyclopropyl-1H-pyrazol-1-yl)-N-(2-{[7-(1-hydroxy-2-methylpropan-2-yl)-7H-pyrrolo[2,3-d]pyrimidin-5-yl]carbonyl}pyridin-4-yl)acetamide], for which the IC50 is 25.4 nM.

Turning to `CC(C)n1cc(C(=O)c2ccnc(NC(=O)Cc3ccc(C#N)cn3)c2)c2cncnc21` [Example 62, 2-(5-Cyanopyridin-2-yl)-N-{4-[(7-isopropyl-7H-pyrrolo[2,3-d]pyrimidin-5-yl)carbonyl}pyridin-2-yl]acetamide], the IC50 turned out to be 34.3 nM.

Consider `CC(C)n1cc(C(=O)c2cc(NC(=O)Cc3ccc(C#N)cn3)ccn2)c2cnc(N)nc21` [Example 63, N-(2-{[2-amino-7-(propan-2-yl)-7H-pyrrolo[2,3-d]pyrimidin-5-yl]carbonyl}pyridin-4-yl)-2-(5-cyanopyridin-2-yl)acetamide], for which the IC50 is 136 nM.

Turning to `CC(C)n1cc(C(=O)c2cc(NC(=O)Cc3ccc(Cl)cc3)ncn2)c2cncnc21` [Example 65, 2-(4-chlorophenyl)-N-(6-{[7-(propan-2-yl)-7H-pyrrolo[2,3-d]pyrimidin-5-yl]carbonyl}pyrimidin-4-yl)acetamide], the IC50 is 23.4 nM.

As to `CC(C)n1cc(C(=O)c2ccnc(NC(=O)Cc3ccc(Cl)c(Cl)c3)c2)c2cncnc21` [Example 66, 2-(3,4-Dichlorophenyl)-N-{4-[(7-isopropyl-7H-pyrrolo[2,3-d]pyrimidin-5-yl)carbonyl]pyridin-2-yl}acetamide], the IC50 is 4.45 nM.

Consider `CC(C)n1cc(C(=O)c2ccnc(NC(=O)Cc3ccc(Cl)cc3)c2)c2cncnc21` [Example 67, 2-(4-chlorophenyl)-N-(4-{[7-(propan-2-yl)-7H-pyrrolo[2,3-d]pyrimidin-5-yl]carbonyl}pyridin-2-yl)acetamide], for which the IC50 is 28.9 nM.

Consider `CC(C)n1cc(C(=O)c2ccnc(NC(=O)Cc3ccc(C#N)cc3)c2)c2cncnc21` [Example 68, 2-(4-cyanophenyl)-N-(4-{[7-(propan-2-yl)-7H-pyrrolo[2,3-d]pyrimidin-5-yl]carbonyl}pyridin-2-yl)acetamide], for which the half-maximal inhibitory concentration (IC50) was found to be 51 nM.

Regarding `Cc1cc(C(F)(F)F)nn1CC(=O)Nc1ccnc(C(=O)c2cn(C(C)C)c3ncncc23)c1` [Example 69, 2-[5-methyl-3-(trifluoromethyl)-1H-pyrazol-1-yl]-N-(2-{[7-(propan-2-yl)-7H-pyrrolo[2,3-d]pyrimidin-5-yl]carbonyl}pyridin-4-yl)acetamide], the IC50 was 5.54 nM.

As to `Cc1ccn(CC(=O)Nc2cc(C(=O)c3cn(C(C)C)c4ncncc34)ccn2)n1` [Example 70, 2-(3-methyl-1H-pyrazol-1-yl)-N-(4-{[7-(propan-2-yl)-7H-pyrrolo[2,3-d]pyrimidin-5-yl]carbonyl}pyridin-2-yl)acetamide], the IC50 came out at 144 nM.

The values above are taken from patent publication US20150218172A1, “Pyrrolo[2,3-D]Pyrimidine Tropomyosin-Related Kinase Inhibitors” (PFIZER LIMITED, priority 2012, published 2015).
